Test results published in patent US20080032965A1, “Method for enhancing cognitive function” (priority 2006, published 2008).
Like-named read-outs stand apart in the source and are kept apart here.

What was measured:
5-HT1A = molecular target: T1, 5-HT1A (Homo sapiens, UniProt P08908)
T1 sequence (P08908 1-422): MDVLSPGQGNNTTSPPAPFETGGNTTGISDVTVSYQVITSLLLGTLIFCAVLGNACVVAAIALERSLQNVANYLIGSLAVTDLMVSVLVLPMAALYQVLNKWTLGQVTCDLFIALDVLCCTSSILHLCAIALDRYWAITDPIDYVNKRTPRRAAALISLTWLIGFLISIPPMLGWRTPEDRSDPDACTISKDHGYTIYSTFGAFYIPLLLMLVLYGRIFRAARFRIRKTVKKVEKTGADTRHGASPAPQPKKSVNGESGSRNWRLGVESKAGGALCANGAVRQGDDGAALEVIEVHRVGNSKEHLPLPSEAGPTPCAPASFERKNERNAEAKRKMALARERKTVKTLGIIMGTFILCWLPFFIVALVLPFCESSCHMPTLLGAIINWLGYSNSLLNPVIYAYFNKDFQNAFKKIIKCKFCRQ

recognition memory [1] = assay: Novel Object Recognition Model (Example 1); type: in vivo, rats; settings: for effect on the cognitive enhancing properties of Aricept in the Novel Object Recognition Model: co-administered with Aricept, lowers dose of both agents required for efficacy
Experimental: (§1) Novel Object Recognition Model: Male Long-Evans hooded rats (˜200 g at the time of testing) were individually housed with ad libitum access to food and water. Novel object recognition (NOR) training and testing was performed in a circular field (diameter ˜70 cm, 30 cm high) constructed out of plastic and containing soiled bedding (without feces). The field was surrounded by black curtains to mask extra-field cues and was located in a dimly lit room (˜10 lux at the level of the area) in the presence of white noise (˜65 dB). Animal performance was tracked by video and monitored by an experimenter located outside of the testing room. Objects, constructed with Duplo® blocks (Lego), could be affixed to the floor in one of four locations spaced evenly around the field approximately 10 cm from the field's edge. To avoid possible olfactory cues, multiple copies of the objects were used throughout the study and were cleaned with a 30% ethanol solution between animals.
The visual recognition task was divided into 3 sessions—habituation, a sample trial and a choice trial. During habituation the animals were placed into the field containing 2 identical yellow cubes (˜10 cm×10 cm×10 cm) and were allowed to explore the field for ten minutes. Following habituation, rats were returned to their home cage. One day after habituation, animals were dosed with drug (either a 5-HT1A antagonist compound, a cognitive enhancer or both a 5-HT1A antagonist compound and a cognitive enhancer) and following the pretreatment interval the sample trial was initiated. […] The amount of time investigating the objects was recorded for the entire trial. […]
(§2) The effect of treatment on object exploration during trial one was examined using a one-way ANOVA on total contact time followed by Fisher's LSD group mean pair-wise comparisons. The amount of time exploring the novel and familiar objects across treatment groups was analyzed using a repeated measures ANOVA followed by Fisher's LSD post-hoc comparisons. […]

recognition memory [2] = assay: Novel Object Recognition, Compound 405 with Aricept (Example 2); type: in vivo, mice; settings: compared between vehicle, Aricept 0.5 mg/kg, Compound 405 0.3 mg/kg and combination groups
Experimental: as §1, with “Objects, constructed with Duplo® blocks (Lego), could be affixed to the floor in one of four locations spaced evenly around the field approximately 10 cm from the field's edge. To avoid possible olfactory cues, multiple copies of the objects were used throughout the study and were cleaned with a 30% ethanol solution between animals.” left out
The visual recognition task was divided into 3 sessions—habituation, a sample trial and a choice trial. […] The amount of time investigating the objects was recorded for the entire trial. […]
as §2
Cognitive enhancement was measured using the Novel Object Recognition procedure described in Example 1. […]

*1^A = settings: Table 4; cited from earlier work
5-HT2A = 5-HT2A (Homo sapiens, UniProt P28223); settings: read-out: Ki (nM) 5-HT2A; Table 1; cited from earlier work
Chain of 5-HT2A (P28223 whole entry): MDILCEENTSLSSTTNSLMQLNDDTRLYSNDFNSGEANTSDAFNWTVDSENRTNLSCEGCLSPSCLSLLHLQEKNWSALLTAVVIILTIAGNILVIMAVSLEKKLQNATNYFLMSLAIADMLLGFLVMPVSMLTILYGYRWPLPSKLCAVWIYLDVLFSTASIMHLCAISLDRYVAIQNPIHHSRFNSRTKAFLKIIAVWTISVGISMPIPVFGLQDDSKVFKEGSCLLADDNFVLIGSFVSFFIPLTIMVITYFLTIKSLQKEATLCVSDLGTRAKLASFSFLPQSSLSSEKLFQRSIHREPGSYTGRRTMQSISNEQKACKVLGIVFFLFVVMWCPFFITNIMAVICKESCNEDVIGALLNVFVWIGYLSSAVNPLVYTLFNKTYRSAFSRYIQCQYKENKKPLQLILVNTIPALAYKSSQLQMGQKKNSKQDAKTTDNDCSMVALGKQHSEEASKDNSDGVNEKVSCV

a1 = settings: Table 2; cited from earlier work
D2 = D2 (Homo sapiens, UniProt P14416); settings: read-out: Ki (nM) D2; Table 2; cited from earlier work
Chain of D2 (P14416 whole entry): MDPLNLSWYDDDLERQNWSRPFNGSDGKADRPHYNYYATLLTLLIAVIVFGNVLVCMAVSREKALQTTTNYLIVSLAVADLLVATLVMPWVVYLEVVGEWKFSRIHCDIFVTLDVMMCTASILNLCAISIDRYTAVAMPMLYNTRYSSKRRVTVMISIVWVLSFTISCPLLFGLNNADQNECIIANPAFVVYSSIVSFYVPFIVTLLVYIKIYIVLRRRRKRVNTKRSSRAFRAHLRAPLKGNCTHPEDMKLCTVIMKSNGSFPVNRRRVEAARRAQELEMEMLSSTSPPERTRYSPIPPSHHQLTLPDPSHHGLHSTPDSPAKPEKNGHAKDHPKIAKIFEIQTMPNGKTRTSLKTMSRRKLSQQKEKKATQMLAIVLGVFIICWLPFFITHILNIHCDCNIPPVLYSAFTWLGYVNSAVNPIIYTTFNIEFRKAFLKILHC

[3] = Table 2; read-out: Ki (nM) 5-HT1A; cited from earlier work
[4] = read-out: Ki (nM) 5-HT1A; Table 4; cited from earlier work
[5] = read-out: Ki (nM) 5-HT1A; Table 2; cited from earlier work
[6] = Table 3; read-out: IC50 (nM) 5-HT1A; cited from earlier work

## CS(=O)(=O)Oc1ccccc1N1CCN(CN(C(=O)C2CCCCC2)c2ccccn2)CC1 [Compound 122]
5-HT1A; [3]
  Ki: 7.25 nM

## COc1ccccc1N1CCN(CCN(C(=O)c2ccc(F)cc2)c2ccccn2)CC1 [Compound 127]
5-HT1A; [3]
  Ki: 3.3 nM

## COc1cc2c(cc1OC)C(=O)C(CC1CCN(Cc3ccccc3)CC1)C2 (stereo not shown) [Aricept®, donepezil]
Recognition memory [1]; sub-threshold doses: Aricept 0.5 mg/kg i.p. or 5-HT1A antagonist 0.1 mg/kg p.o., 48 hour inter-trial interval
  contact times familiar vs novel, administered separately: not statistically different
Recognition memory [2]
  exploration time (FIG. 1): relatively similar

## CCOc1ccccc1-c1nnc(SCCCN2CCN(c3ccccc3[N+](=O)[O-])CC2)s1 [Compound 137]
5-HT1A; [4]
  Ki: 135 nM
*1^A
  Ki: 437 nM

## O=c1ccc(=O)n(-c2ccccc2)n1CCCCN1CCN(c2cccc(Cl)c2)CC1 [Compound 104]
5-HT2A
  Ki: 1830 nM

## COc1ccccc1N1CCN(CN(C(=O)C2CCCCC2)c2ccccn2)CC1 [Compound X]
a1
  Ki: 45 nM
5-HT1A; [5]
  Ki: 0.24 nM
D2
  Ki: 79 nM

## COc1ccc(C2(O)CCC(N3CCN(Cc4ccccc4)CC3)CC2)cc1 (stereo not shown) [Compound 113]
5-HT1A; [6]
  IC50: 50 nM

## COc1ccccc1N1CCN(CC(C(=O)NC(C)(C)C)c2ccccc2)CC1 (racemic) [Compound Y (R)]
a1
  Ki: 1240 nM
5-HT1A; [5]
  Ki: 104 nM
D2
  Ki: 4 nM

## O=C(C1CCCCC1)N(CN1CCN(c2ccccc2O)CC1)c1ccccn1 [Compound 119]
5-HT1A; Table 2, starred value; read-out: 5-HT1A, data expressed as IC50 value (*); cited from earlier work
  IC50: 2.1 nM

## COc1ccccc1N1CCN(CC(C(=O)NC2CCCCC2)c2ccccc2)CC1 (stereo not shown) [Compound 118]
a1
  Ki: 1870 nM
5-HT1A; [5]
  Ki: 10 nM

## C[C@H](CN(C(=O)C1CCCCC1)c1ccccn1)N1CCN(c2cccc3[nH]ccc23)CC1 [Compound 405, (R)-N-(2-methyl-(4-indolyl-1-piperazinyl)ethyl)-N-(2-pyridinyl)cyclohexane carboxamide]
Recognition memory [2]
  exploration time (FIG. 1): relatively similar

## COc1ccccc1N1CCN(CCN(C(=O)c2ccc(I)cc2)c2ccccn2)CC1 [Compound 124]
a1
  Ki: 35 nM
5-HT1A; [5]
  Ki: 2.6 nM
D2
  Ki: 19 nM

## O=C(C1CCCCC1)N(CN1CCN(c2ccccc2OS(=O)(=O)C(F)(F)F)CC1)c1ccccn1 [Compound 123]
5-HT1A; [3]
  Ki: 36 nM

## COc1ccccc1N1CCN(CCCSc2nc3sc4c(c3c(=O)n2N)CCC4)CC1 [Compound 129]
5-HT1A; [4]
  Ki: 9.26 nM
*1^A
  Ki: 7.39 nM

## COc1ccccc1N1CCN(CCCCn2c(=O)ccc(=O)n2-c2ccccc2)CC1 [Compound 106]
5-HT1A; read-out: Ki (nM) 5-HT1A; Table 1; cited from earlier work
  Ki: 51 nM
5-HT2A
  Ki: 1450 nM

## OC1(c2ccc3c(c2)OCO3)CCC(N2CCN(Cc3ccccc3)CC2)CC1 (stereo not shown) [Compound 112]
5-HT1A; [6]
  IC50: 20 nM

## COc1ccccc1N1CCN(CC(C(=O)NC(C)(C)C)c2ccccc2)CC1 (racemic) [Compound Y (S)]
a1
  Ki: 1440 nM
5-HT1A; [5]
  Ki: 22 nM
D2
  Ki: 20 nM

## COc1cccc(CN2CCN(C3CCC(O)(c4ccc5c(c4)OCO5)CC3)CC2)c1 (stereo not shown) [Compound 114]
5-HT1A; [6]
  IC50: 2.2 nM

## COc1cc(N2CCN(C3CCN(c4ccc(F)c5cccnc45)CC3)CC2)c2ncccc2c1 [5-fluoro-8-(4-(4-(6-methoxyquinolin-8-yl)piperazin-1-yl)piperidin-1-yl)quinoline]
Recognition memory [1]
  effect on the cognitive enhancing properties of Aricept in the Novel Object Recognition Model: synergistic effect

## COc1ccccc1N1CCN(CCCn2c(=O)ccc(=O)n2-c2ccccc2)CC1 [Compound 105]
5-HT2A
  Ki: 2120 nM

## COc1ccccc1N1CCN(CCCSc2nc(N)c3c(C)c(C)sc3n2)CC1 [Compound 135]
5-HT1A; [4]
  Ki: 2.45 nM
*1^A
  Ki: 10.8 nM

## COc1ccccc1N1CCN(CCN(C(=O)c2cccc(I)c2)c2ccccn2)CC1 [Compound 125]
5-HT1A; [3]
  Ki: 1.7 nM

## COc1cc(N2CCN(C3CCN(c4ccc(F)c5c(OC)cc(C(F)(F)F)nc45)CC3)CC2)c2ncccc2c1 [5-fluoro-4-methoxy-8-(4-(4-(6-methoxyquinolin-8-yl)piperazin-1-yl)piperidin-1-yl)-2-(trifluoromethyl)quinoline]
Recognition memory [1]
  effect on the cognitive enhancing properties of Aricept in the Novel Object Recognition Model: synergistic effect

## COc1ccccc1N1CCN(CC(C(=O)NC(C)(C)C)c2ccccc2)CC1 (racemic) [Compound Y (±)]
a1
  Ki: 718 nM
5-HT1A; [5]
  Ki: 20 nM
D2
  Ki: 14 nM
